According to patent US8124582B2, “Treatment of diabetes” (FibroGen, Inc., priority 2002, dated 2012):

Tested on: inducible nitric oxide synthase (iNOS)
Experiment: In vivo iNOS mRNA expression (quantitative PCR)
Set-up: species or system Swiss Webster male mice
Details: mice, FIG. 10A
Method: To determine gene induction patterns over time, twenty four Swiss Webster male mice (30-32 g) were obtained from Simonsen, Inc. and treated by oral gavage with a 4 ml/kg volume of either 0.5% carboxymethyl cellulose (CMC; Sigma-Aldrich, St. Louis Mo.) (0 mg/kg/day) or […] compound B (25 mg/ml in 0.5% CMC) (100 mg/kg). At 4, 8, 16, 24, 48, or 72 hours after the final dose, animals were anesthetized with isoflurane. The mice were then sacrificed and tissue samples of kidney, liver, brain, lung, and heart were isolated and stored in RNALATER solution (Ambion) at −80° C.
To investigate the dose response of compounds of the present invention, twelve Swiss Webster male mice (30-32 g) (obtained from Simonsen, Inc., Gilroy Calif.) were treated by oral gavage once per day for 4 days with a 4 ml/kg volume of either 0.5% carboxymethyl cellulose (CMC; Sigma-Aldrich, St. Louis Mo.), compound D (25 mg/ml in 0.5% CMC) (100 mg/kg/day), or compound B (7.5 and 25 mg/ml in 0.5% CMC) (30 and 100 mg/kg/day, respectively). Four hours after the final dose, animals were anesthetized, sacrificed, and approximately 150 mg of liver and each kidney were isolated and stored in RNALATER solution (Ambion) at −20° C.
Hypertension is a risk factor for diabetes and disorders and diseases associated with diabetes. The effects of compounds of the present invention on regulation of blood pressure were examined as follows. Animals were treated with compound B or compound D and RNA samples were prepared as described above in Example 4. […] Analysis of the relative level of gene expression was performed by quantitative PCR using a FASTSTART DNA MASTER SYBR GREEN I kit (Roche) and gene-specific primers, using a LIGHTCYCLER system (Roche), according to manufacturer's instructions. […]
The relative level of 18S ribosomal RNA gene expression was measured as a control. Quantitative PCR was performed using a QUANTITECT SYBR GREEN PCR kit (Qiagen) and gene-specific primers, using a LIGHTCYCLER system (Roche), according to manufacturer's instructions. […]

O=C(O)CNC(=O)c1nc(Cl)c2ccccc2c1O [compound B, [(1-Chloro4-hydroxy-isoquinoline-3-carbonyl)-amino]-acetic acid]
dose dependence of iNOS induction (30 and 100 mg/kg/day oral gavage): dose-dependent
expression of the gene encoding iNOS (oral gavage, within 8 hours following treatment, then returned to control levels, normalized to 18S rRNA): increased
